Measured values: patent publication US7919517B2, “Indazole derivatives” (Kyowa Hakko Kirin Co., Ltd., priority 2003, dated 2011)
Where a name gives a salt, the structure may show the parent alone.

Assays:
Type in all cases: cell-based
[1] = tested on: human colon cancer cell line Colo205; test: Cytostatic activity on solid carcinoma cell line Colo205 (WST-1); details: Homo sapiens, COLO 205; 10 μmol/L, 72 hours, Colo205 cells; read-out: cytostatic rate Colo205 (%) (10 μmol/L)
Procedure: (§1) Each cell was cultured using Roswell Park Memorial Institute's Medium (RPMI) 1640 (Gibco, Catalog No. 11875-093) containing 10% fetal bovine serum (Gibco, Catalog No. 10437-028) and 1% penicillin/streptomycin (1:1) (Gibco, Catalog No. 15140-122). Each 80 μL of the MV-4-11 cell having a concentration of 7.5×10^4 cells/mL (or the ML-1 cell or K562 cell having a concentration of 2.5×10^4 cells/mL) was inoculated to wells of a TC MICROWELL 96U plate (Nalge Nunc International, Catalog No. 163320) and was cultured in a 5% carbon dioxide gas incubator at 37° C. for 4 hours. As a blank, only RPMI medium (80 μL) was added to a well. Each 20 μL of a solution of the test compound in dimethyl sulfoxide (DMSO) which was prepared to make the final concentration to 10 μmol/L, was added to the MV-4-11 cell, ML-1 cell and K562 cell, respectively. Each 20 μL of DMSO was added to the control well and the blank well to […]. After adding the test compound, the cells were incubated in a 5% carbon dioxide gas incubator at 37° C. for 72 hours. After adding 20 μL of WST-1 reagent {4-[3-(4-iodophenyl)-2-(4-nitrophenyl)-2H-5-tetrazolio]-1,3-benzene disulfonate sodium salt} (Roche Diagnostics K.K., Catalog No. 1644807) diluted to 50% with RPMI medium, the cells were further incubated at 37° C. for 2 hours. Then, the absorbances at 450 nm (reference wavelength: 690 nm) were determined with a microplate spectrophotometer SPECTRA max 340PC (Molecular Devices Corporation). The relative growth (%) of a well to which the test compound had been added was determined while setting the absorbance of a well to which not the test compound but DMSO alone had been added (control) at 100% and that of a well containing RPMI medium alone at 0%. The cytostatic rate (%) of the test compound was determined by subtracting the calculated relative growth from 100.
The cytostatic rate of a test compound on the human colon cancer cell line Colo205 was determined in the following manner.
The cell was cultured using Roswell Park Memorial Institute's Medium (RPMI) 1640 (Gibco, Catalog No. 11875-093) containing 10% fetal bovine serum (Gibco, Catalog No. 10437-028) and 1% penicillin/streptomycin (1:1) (Gibco, Catalog No. 15140-122). Each 80 μL of the Colo205 having a concentration of 1.25×10^4 cells/mL was inoculated to wells of a TC MICROWELL 96F plate (Nalge Nunc International, Catalog No. 167008) and was cultured in a 5% carbon dioxide gas incubator at 37° C. for 24 hours. As a blank, only RPMI (80 μL) was added to a well. Each 20 μL of a solution of the test compound in DMSO which was prepared to make the final concentration to 10 μmol/L, was added to the Colo205 cell. Each 20 μL of DMSO was added to the control well and the blank well to […]. After adding the test compound, the cell was incubated in a 5% carbon dioxide gas incubator at 37° C. for 72 hours. The cytostatic rate (%) was then determined in the same way as the leukemia cell lines.

[2] = tested on: human acute myeloid leukemia cell line ML-1; test: Cytostatic activity on leukemia cell line ML-1 (WST-1); details: Homo sapiens, ML1; 10 μmol/L, 72 hours, ML-1 cells; read-out: cytostatic rate ML-1 (%) (10 μmol/L)
Procedure: (§2) The cytostatic rates of a test compound on human acute myeloid leukemia cell lines MV-4-11 and ML-1, and human chronic myeloid leukemia cell line K562 were determined in the following manner.
as §1

[3] = tested on: human chronic myeloid leukemia cell line K562; test: Cytostatic activity on leukemia cell line K562 (WST-1); details: Homo sapiens; 10 μmol/L, 72 hours, K562 cells; read-out: cytostatic rate K562 (%) (10 μmol/L)
Procedure: as §2, §1

[4] = tested on: human acute myeloid leukemia cell line MV-4-11; test: Cytostatic activity on leukemia cell line MV-4-11 (WST-1); details: Homo sapiens, MV4-11; 10 μmol/L, 72 hours, MV-4-11 cells; read-out: cytostatic rate MV-4-11 (%) (10 μmol/L)
Procedure: as §2, §1

Structure (SMILES) | inhibition at 10 µM [1] [%] | inhibition at 10 µM [2] [%] | inhibition at 10 µM [3] [%] | inhibition at 10 µM [4] [%]
CC(C)(C)C(=O)N1CCN(C(=O)c2ccc(/C=C/c3n[nH]c4ccccc34)cc2)CC1 [Compound 40, (E)-1-{4-[2-(1H-indazol-3-yl)vinyl]benzoyl}-4-(pivaloyl)piperazine] | 88 | 67 | 96 | 98
O=C(c1ccc(/C=C/c2n[nH]c3ccccc23)cc1)N1CCN(C(=O)N2CCOCC2)CC1 [Compound 41, (E)-1-{4-[2-(1H-indazol-3-yl)vinyl]benzoyl}-4-(morpholinocarbonyl)piperazine] | 90 | 83 | 95 | 97
O=C(c1ccncc1)N1CCN(C(=O)c2ccc(/C=C/c3n[nH]c4ccccc34)cc2)CC1 [Compound 44, (E)-1-{4-[2-(1H-indazol-3-yl)vinyl]benzoyl}-4-(isonicotinoyl)piperazine] | 91 | 85 | 92 | 98
O=C(c1ccccc1)N1CCN(C(=O)c2ccc(/C=C/c3n[nH]c4ccccc34)cc2)CC1 [Compound 46, (E)-1-{4-[2-(1H-indazol-3-yl)vinyl]benzoyl}-4-benzoylpiperazine] | 87 | 82 | 93 | 98
CS(=O)(=O)N1CCN(C(=O)c2ccc(/C=C/c3n[nH]c4ccccc34)cc2)CC1 [Compound 47, (E)-1-{4-[2-(1H-indazol-3-yl)vinyl]benzoyl}-4-(methanesulfonyl)piperazine] | 91 | 88 | 88 | 97
O=C(c1ccc(/C=C/c2n[nH]c3ccccc23)cc1)N1CCC(C(=O)N2CCOCC2)CC1 [Compound 51, (E)-1-{4-[2-(1H-indazol-3-yl)vinyl]benzoyl}-4-(morpholinocarbonyl)piperidine] | 90 | 89 | 95 | 98
O=C(c1ccc(/C=C/c2n[nH]c3ccccc23)cc1)N1CCN(C(=O)C2CC2)CC1 [Compound 55, (E)-4-cyclopropanecarbonyl-1-{4-[2-(1H-indazol-3-yl)vinyl]benzoyl}piperazine] | 89 | 83 | 81 | 97
CC(C)C(=O)N1CCN(C(=O)c2ccc(/C=C/c3n[nH]c4ccccc34)cc2)CC1 [Compound 56, (E)-4-isobutyryl-1-{4-[2-(1H-indazol-3-yl)vinyl]benzoyl}piperazine] | 88 | 78 | 87 | 98
O=C(c1ccc(/C=C/c2n[nH]c3ccccc23)cc1)N1CCN(C(=O)c2ccsc2)CC1 [Compound 58, (E)-4-(3-thiophenecarbonyl)-1-{4-[2-(1H-indazol-3-yl)vinyl]benzoyl}piperazine] | 85 | 74 | 89 | 96
NCC(=O)N1CCN(C(=O)c2ccc(/C=C/c3n[nH]c4ccccc34)cc2)CC1 [Compound 61, (E)-4-aminoacetyl-1-{4-[2-(1H-indazol-3-yl)vinyl]benzoyl}piperazine hydrochloride] | 87 | 79 | 85 | 98
CCN(CC)CCNC(=O)c1ccc(/C=C/c2n[nH]c3ccccc23)cc1 [Compound 63, (E)-N-[2-(diethylamino)ethyl]-4-[2-(1H-indazol-3-yl)vinyl]benzamide] | 88 | 87 | 76 | 98
NC1CCN(C(=O)c2ccc(/C=C/c3n[nH]c4ccccc34)cc2)CC1 [Compound 64, (E)-1-{4-[2-(1H-indazol-3-yl)vinyl]benzoyl}-4-aminopiperidine] | 94 | 89 | 91 | 98
COCC(=O)N1CCN(C(=O)c2ccc(/C=C/c3n[nH]c4ccccc34)cc2)CC1 [Compound 65, (E)-4-methoxyacetyl-1-{4-[2-(1H-indazol-3-yl)vinyl]benzoyl}piperazine] | 88 | 86 | 85 | 97
CC(C)CC(=O)N1CCN(C(=O)c2ccc(/C=C/c3n[nH]c4ccccc34)cc2)CC1 [Compound 66, (E)-4-(3-methylbutyryl)-1-{4-[2-(1H-indazol-3-yl)vinyl]benzoyl}piperazine] | 83 | 74 | 89 | 99
CC(C)(O)C(=O)N1CCN(C(=O)c2ccc(/C=C/c3n[nH]c4ccccc34)cc2)CC1 [Compound 68, (E)-4-(2-methyl-2-hydroxypropionyl)-1-{4-[2-(1H-indazol-3-yl)vinyl]benzoyl}piperazine] | 90 | 79 | 91 | 97
CC(C)(CO)C(=O)N1CCN(C(=O)c2ccc(/C=C/c3n[nH]c4ccccc34)cc2)CC1 [Compound 72, (E)-4-(3-hydroxy-2,2-dimethylpropionyl)-1-{4-[2-(1H-indazol-3-yl)vinyl]benzoyl}piperazine] | 93 | 80 | 95 | 100
CC(=O)N1CCN(C(=O)c2ccc(/C=C/c3n[nH]c4ccccc34)cc2C)CC1 [Compound 73, (E)-4-acetyl-1-{2-methyl-4-[2-(1H-indazol-3-yl)vinyl]benzoyl}piperazine] | 89 | 87 | 68 | 97
COC(=O)N1CCN(C(=O)c2ccc(/C=C/c3n[nH]c4ccccc34)cc2)CC1 [Compound 75, (E)-4-methoxycarbonyl-1-{4-[2-(1H-indazol-3-yl)vinyl]benzoyl}piperazine hydrochloride] | 88 | 88 | 85 | 99
CC1(C(=O)N2CCN(C(=O)c3ccc(/C=C/c4n[nH]c5ccccc45)cc3)CC2)CC1 [Compound 77, (E)-4-(1-methylcyclopropanecarbonyl)-1-{4-[2-(1H-indazol-3-yl)vinyl]benzoyl}piperazine] | 86 | 80 | 95 | 98
CC(C)(C)CC(=O)N1CCN(C(=O)c2ccc(/C=C/c3n[nH]c4ccccc34)cc2)CC1 [Compound 78, (E)-4-(3,3-dimethylbutyryl)-1-{4-[2-(1H-indazol-3-yl)vinyl]benzoyl}piperazine] | 82 | 64 | 90 | 98
CCN(CC)C(=O)C1CCN(C(=O)c2ccc(/C=C/c3n[nH]c4ccccc34)cc2)CC1 [Compound 81, (E)-N,N-diethyl-1-{4-[2-(1H-indazol-3-yl)vinyl]benzoyl}piperidine-4-carboxamide] | 85 | 77 | 95 | 98
